Ten molecules from patent US8642317B2 (priority 2007, dated 2014) can be followed below.

The first test has as its system bacterial isolate 180507-1 (IDAC). In kind it is cell-based.
Regarding Vancomysin, the “Reaction (sensitivity of the isolate)” value is “Sensitive”.

For the next test the test system is unchanged. This is another data set of the same source.
For 4-diacetoxyscirpenol, the “degradation by the selected isolate (deepoxidation and/or deacylation)” value (from here on “degradation by the selected isolate”) is “degraded”.
The same measure, in the same setting: then `CC(=O)O[C@@H]1C[C@]2(C)[C@@]3(CO)[C@H](O)C(=O)C(C)=C[C@H]3O[C@H]1[C@@]21CO1` [3-acetyldeoxynivalenol], with “degraded”; and `CC(=O)OC[C@]12[C@H](O)C(=O)C(C)=C[C@H]1O[C@@H]1[C@H](O)C[C@@]2(C)[C@]12CO2` [15-acetyldeoxynivalenol], with “degraded”; and `CC(=O)OCC12CCC(C)=CC1OC1C(O)C(O)C2(C)C12CO2` (stereo not shown) [15-monoacetoxyscirpenol], with “degraded”.
With `CC(=O)OC[C@]12C[C@H](OC(=O)CC(C)C)C(C)=C[C@H]1O[C@@H]1[C@H](O)[C@@H](O)[C@@]2(C)[C@]12CO2` [HT-2 toxin], the “degradation by the selected isolate” value was “degraded”.
Take `CC1=C[C@H]2O[C@@H]3[C@H](O)[C@@H](O)[C@](C)([C@@]2(CO)C[C@@H]1OC(=O)CC(C)C)[C@]31CO1` [T-2 triol]: the “degradation by the selected isolate” value is on record as “degraded”.
On the same count and under the same terms, the value for `CC(=O)O[C@@H]1[C@@H](O)[C@H]2O[C@@H]3C=C(C)C(=O)[C@@H](O)[C@]3(CO)[C@]1(C)[C@]21CO1` [fusarenon X] was “degraded”; that for `CC(=O)OC[C@]12C[C@H](O)C(C)=C[C@H]1O[C@@H]1[C@H](O)[C@@H](OC(C)=O)[C@@]2(C)[C@]12CO2` [neosolaniol] was “degraded”.
The same measure, in the same setting: the value for `CC1=C[C@H]2O[C@@H]3[C@H](O)[C@@H](O)[C@](C)([C@@]2(CO)[C@H](O)C1=O)[C@]31CO1` [nivalenol] was “degraded”.
